Source: patent US8247569B2, “Cyclohexane derivative and pharmaceutical use thereof” (Toray Industries, Inc., priority 2008, dated 2012)
Like-named read-outs stand apart in the source and are kept apart here.

Key:
[1] = system: mouse sciatic nerve-ligation model (Seltzer model); assay: mouse partial sciatic nerve ligation model (Seltzer model), von Frey test; details: for von Frey total score compared to the vehicle group: 1 hour after oral administration, doses as in Table 11; for von Frey Total Score Observed 1 Hour after Oral Administration (mean ± standard error), Compound-administered group: n = 5 to 6
[2] = human liver microsomal stability assay; assay type: in vitro ADME; details: liver microsomes, pH 7.4, human liver microsomes 0.5 mg/mL, test compound 2 μmol/L, 37° C., 0-30 min, read-out: Human hepatic intrinsic clearance
Protocol: A liver microsomal stability assay, which is known to be an in vitro assay for evaluation of the stability of a compound against hepatic metabolism, was carried out to evaluate the stability of Compound (I) against human and mouse hepatic metabolism.
A total of 4 times of experiments were carried out for the combinations of the compound of Example 2-B or the compound of Comparative Example 29 as the test compound and human liver microsomes (Xenotech) or mouse liver microsomes (Xenotech) as the liver microsomes.
The respective reagents to be used for the liver microsomal stability assay were prepared as follows. That is, an appropriate amount of D-glucose 6-phosphate disodium salt (hereinafter referred to as G6P) was dissolved in distilled water at 100 mmol/L, to prepare 100 mmol/L aqueous G6P solution. In 5 mL of distilled water, 1000 units of Glucose 6-phosphate dehydrogenase from Yeast (hereinafter referred to as G6PDH) was dissolved, to prepare 200 units/mL aqueous G6PDH solution. An appropriate amount of MgCl2 was dissolved in distilled water at 100 mmol/L, to prepare 100 mmol/L aqueous MgCl2 solution. To 500 mL of 200 mmol/L aqueous K2HPO4 solution, 200 mmol/L aqueous KH2PO4 solution (about 130 mL) was added, and pH was adjusted to 7.4, to prepare 200 mmol/L KH2PO4/K2HPO4 buffer pH7.4 (hereinafter referred to as 200 mmol/L PB). β-nicotinamide-adenine dinucleotide phosphate, reduced form, tetrasodium salt (hereinafter referred to as (NADPH) was dissolved in distilled water such that the NADPH content becomes 10 mmol/L based on the purity (Purity NADPH) in the assay data described in the attached document, to prepare 10 mmol/L aqueous NADPH solution.
The liver microsomal stability assay was carried out according to the following procedure. First, the reagents listed in Table 12 (excluding microsomes) were mixed together to prepare a reaction mixture, and the reaction mixture was aliquoted in 130 μL volumes to 4 wells (which play roles as the wells for the 0-minute reaction, well for the 30-minute reaction, well for the 20-minute reaction and well for the 10-minute reaction, respectively) in a 96-well tube plate (BM Equipment Co., Ltd; hereinafter referred to as plate). The entire plate was covered with a silicone cap, and the plate was subjected to preincubation by being soaked in a water bath at 37° C. for 10 minutes.
After the preincubation, 3.75 μL of 20 mg/mL microsome suspension+16.25 μL of distilled water (20 μL in total) were added to the well for the 30-minute reaction, and the plate was covered with the cap, followed by soaking the plate in a water bath at 37° C. to initiate the reaction.
Ten minutes after the beginning of the reaction, 3.75 μL of 20 mg/mL microsome suspension+16.25 μL of distilled water (20 μL in total) were added to the well for the 20-minute reaction, and 20 minutes after the beginning of the reaction, 3.75 μL of 20 mg/mL microsome suspension+16.25 μL of distilled water (20 μL in total) were added to the well for the 10-minute reaction. The reaction was further continued by keeping the plate soaked in the water bath at 37° C.
Thirty minutes after the beginning of the reaction, the plate was removed from the water bath, and 120 μL of acetonitrile was added to each well, followed by covering the plate with the cap, stirring the plate for 10 seconds with Direct Mixer, and stopping the reaction by 10 minutes of ice cooling. After the reaction was stopped, 3.75 μL of 20 mg/mL microsome suspension+16.25 μL of distilled water (20 μL in total) were added to the well for the 0-minute reaction.
The reaction liquid in each well was centrifuged at 4° C. at 2500 rpm for 10 minutes, and the supernatant was transferred to a glass-coated microplate (TOMSIC Plate+) to begin LC/MS/MS analysis. The conditions for the LC/MS/MS analysis were as follows: […]

[3] = system: mouse acetic acid writhing model; assay: mouse acetic acid writhing model (nociceptive pain); assay type: in vivo; details: for ED50: male ddY mice, oral administration 45 min before 0.6% acetic acid i.p., dose suppressing 50% of writhing responses vs vehicle group, vehicle A or B

SMILES | ED50 ([3]; Mus musculus, read-out: ED50) [mg/kg] | also measured
COc1ccc(-c2cc(C3(O)CCC(O)CC3)nn2-c2ccc(OC)cc2)cc1 (single isomer, unassigned) [Example 4-B, 1-(1,5-Bis(4-methoxyphenyl)-1H-pyrazol-3-yl)cyclohexan-cis-1,4-diol] |  | von Frey total score compared to the vehicle group [1]: significantly improved; von Frey Total Score Observed 1 Hour after Oral Administration (mean ± standard error), Compound-administered group ([1]; dose 10 mg/kg oral, […]): 2.2 ± 0.5; microsomal CLint at 2 μmol/L [2]: 8.69 µL/min/mg
COc1ccc(-c2nc(C3(O)CCC(O)CC3)oc2-c2ccc(OC)cc2)cc1 (single isomer, unassigned) [Example 67-B, 4-(4,5-Bis(4-methoxyphenyl)oxazol-2-yl)cyclohexan-cis-1,4-diol] | 7.32 | von Frey total score compared to the vehicle group [1]: significantly improved; von Frey Total Score Observed 1 Hour after Oral Administration (mean ± standard error), Compound-administered group ([1]; dose 10 mg/kg oral, […]): 0.8 ± 0.7; microsomal CLint at 2 μmol/L [2]: 12.7 µL/min/mg
COc1ccc(-n2nc(C3(O)CCC(O)CC3)cc2-c2ccc(S(C)(=O)=O)cc2)cc1 (stereo not drawn) [Comparative Example 3] | > 10 | 
COc1ccc(-n2nc(C3(OC(C)=O)CCC(O)CC3)cc2-c2ccc(C)cc2)cc1 (stereo not drawn) [Comparative Example 26, c-4-Hydroxy-1-(1-(4-methoxyphenyl)-5-(p-tolyl)-1H-pyrazol-3-yl)-cyclohexan-r-1-yl acetate] | > 10 | 
COc1ccc(-n2nc(C3(OC)CCC(O)CC3)cc2-c2ccc(C)cc2)cc1 (stereo not drawn) [Comparative Example 27, 4-Methoxy-4-(1-(4-methoxyphenyl)-5-p-tolyl-1H-pyrazol-3-yl)cyclohexanol] | > 10 | 
COc1ccc(-n2nc(C3(O)CCC(O)CC3)c(F)c2-c2ccc(C)cc2)cc1 (stereo not drawn) [Comparative Example 28, 1-(4-Fluoro-1-(4-methoxyphenyl)-5-(p-tolyl)-1H-pyrazol-3-yl)cyclohexan-cis-1,4-diol] | > 10 | 
NS(=O)(=O)c1ccc(-n2nc(C3CCCCC3)cc2-c2ccccc2)cc1CO [Comparative Example 30, 4-(3-Cyclohexyl-5-phenyl-1H-pyrazol-1-yl)-2-(hydroxymethyl)benzenesulfonamide] | > 10 | reduction in the number of writhing responses ([3]; administration of 10 mg/kg, t-test): did not cause significant reduction
COc1ccc(-n2nc(C3(O)CCCCC3)cc2-c2ccc(C)cc2)cc1 [Compound 1] | 3.78 | 
CCc1ccc(-c2cc(C3(O)CCC(O)CC3)nn2-c2ccc(OC)cc2)cc1 (stereo not drawn) [Compound 28] | 5.27 | 
COc1ccc(-n2nc(C3(O)CCC(O)CC3)cc2-c2ccc(C)cc2)cc1F (stereo not drawn) [Compound 29] | 3.77 | 
COc1ccc(-n2nc(C3(O)CCC(O)CC3)cc2-c2ccc(C)cc2)cc1F (stereo not drawn) [Compound 30] |  | von Frey Total Score Observed 1 Hour after Oral Administration (mean ± standard error), Compound-administered group ([1]; dose 10 mg/kg oral, […]): 1.2 ± 0.6
COc1ccc(-n2nc(C3(O)CCC(O)CC3)cc2-c2ccc(C)c(F)c2)cc1 (stereo not drawn) [Compound 31] | 0.41 | von Frey Total Score Observed 1 Hour after Oral Administration (mean ± standard error), Compound-administered group ([1]; dose 3 mg/kg oral, vehicle B (27% HP-β-CD)): 0.7 ± 0.5
COc1ccc(-n2nc(C3(O)CCC(O)CC3)cc2-c2ccc(C)cc2)cc1 (stereo not drawn) [Example 2-A, 1-(1-(4-Methoxyphenyl)-5-(p-tolyl)-1H-pyrazol-3-yl)cyclohexan-trans-1,4-diol] | 1.8 | analgesic effect 3 hours after the oral administration (von Frey test) ([1]; oral administration of 0.3 mg/kg, FIG. 1): a strong analgesic effect was maintained; microsomal CLint at 2 μmol/L [2]: 45.1 µL/min/mg
Cc1ccc(-c2cc(C3(O)CCC(O)CC3)nn2-c2ccc(Cl)cc2)cc1 (stereo not drawn) [Example 6-A, 1-(1-(4-Chlorophenyl)-5-p-tolyl-1H-pyrazol-3-yl)cyclohexan-trans-1,4-diol] | 7.97 | 
CCc1ccc(-c2cc(C3(O)CCC(O)CC3)nn2-c2ccc(OC)cc2)cc1 (stereo not drawn) [Example 28] |  | microsomal CLint at 2 μmol/L [2]: 3.19 µL/min/mg
COc1ccc(-n2nc(C3(O)CCC(O)CC3)cc2-c2ccc(C)cc2)cc1F (stereo not drawn) [Example 30] |  | microsomal CLint at 2 μmol/L [2]: 3.92 µL/min/mg
COc1ccc(-n2nc(C3(F)CCC(O)CC3)cc2-c2ccc(C)cc2)cc1 (stereo not drawn) [Example 60, t-4-Fluoro-4-(1-(4-methoxyphenyl)-5-(p-tolyl)-1H-pyrazol-3-yl)-cyclohexan-r-1-ol] | 1.37 | 
COc1ccc(-n2nc(C3(O)CCC(OC)CC3)cc2-c2ccc(C)cc2)cc1 (stereo not drawn) [Example 63, 4-Methoxy-1-(1-(4-methoxyphenyl)-5-(p-tolyl)-1H-pyrazol-3-yl)cyclohexanol] | 5.36 | 

SMILES | ED50 ([3]; Mus musculus, read-out: ED50) [mg/kg] | also measured
COc1ccc(-n2nc(C3(CO)CCC(O)CC3)cc2-c2ccc(C)cc2)cc1 (stereo not drawn) [Example 65-A, 4-(Hydroxymethyl)-4-(1-(4-methoxyphenyl)-5-p-tolyl-1H-pyrazol-3-yl)-trans-1,4-cyclohexanol] | 1.44 | 
COc1ccc(-c2nc(C3(O)CCC(O)CC3)sc2-c2ccc(C)cc2)cc1 (stereo not drawn) [Example 69-A, 1-(4-(4-Methoxyphenyl)-5-(p-tolyl)thiazol-2-yl)cyclohexan-trans-1,4-diol] | 3.02 | 
COc1ccc(-c2nc(C3(O)CCC(O)(C(F)(F)F)CC3)sc2-c2ccc(C)cc2)cc1 (stereo not drawn) [Example 70-B, 1-(4-(4-Methoxyphenyl)-5-(p-tolyl)thiazol-2-yl)-4-(trifluoromethyl)cyclohexan-cis-1,4-diol] |  | ED50 [3]: 9.65 mg/kg
CCOC(=O)C1CCC(O)(c2cc(-c3ccc(C)cc3)n(-c3ccc(OC)cc3)n2)CC1 (stereo not drawn) [Example 71, Ethyl 4-hydroxy-4-(1-(4-methoxyphenyl)-5-p-tolyl-1H-pyrazol-3-yl)-cis-cyclohexanecarboxylate] | 1.58 | 
COc1ccc(-n2nc(C3(O)CCC(O)CC3)cc2-c2ccccc2C)cc1 (stereo not drawn) [compound 1] | > 10 | 
OC1CCC(O)(c2cc(-c3ccc(Cl)cc3)n(-c3ccc(F)cc3)n2)CC1 (stereo not drawn) [compound 5] | > 10 | 
OC1CCC(O)(c2cc(-c3ccc(Cl)cc3)n(-c3ccc(Cl)cc3Cl)n2)CC1 (stereo not drawn) [compound 7] | > 10 | 
COc1ccc(-n2nc(C3(O)CCC(O)CC3)cc2-c2cccc(C)c2)cc1 (stereo not drawn) [compound 10] | > 10 | 
Cc1ccc(-c2cc(C3(O)CCC(O)CC3)nn2-c2ccc(F)cc2)cc1 (stereo not drawn) [compound 11] | > 10 | 
COc1ccc(-n2nc(C3(O)CCC(O)CC3)cc2-c2ccc(F)cc2)cc1 (stereo not drawn) [compound 13] | > 10 | 
OC1CCC(O)(c2cc(-c3ccc(F)cc3)n(-c3ccc(Cl)cc3)n2)CC1 (stereo not drawn) [compound 15] | > 10 | 
OC1CCC(O)(c2cc(-c3ccc(F)cc3)n(-c3ccc(F)cc3)n2)CC1 (stereo not drawn) [compound 17] | > 10 | 
OC1CCC(O)(c2cc(-c3ccc(F)cc3)n(-c3ccccc3)n2)CC1 (stereo not drawn) [compound 19] | > 10 | 
Cc1ccc(-n2nc(C3(O)CCC(O)CC3)cc2-c2ccc(F)cc2)cc1 (stereo not drawn) [compound 21] | > 10 | 
Cc1ccc(-c2cc(C3(O)CCC(O)CC3)nn2-c2ccc(S(C)(=O)=O)cc2)cc1 (stereo not drawn) [compound 23] | > 10 | 
COc1ccc(-n2nc(C3(O)CCC(O)CC3)cc2-c2cccnc2OC)cc1 (stereo not drawn) [compound 24] | > 10 | 
NCC1(CC(=O)O)CCCCC1 [gabapentin, reference compound] |  | analgesic effect 3 hours after the oral administration (von Frey test) ([1]; positive controls, gabapentin 30 mg/kg oral, dose of Comparative Example 29 not given): drastically decreased; time of strongest analgesic effect after oral administration (von Frey test) ([1]; positive controls, gabapentin 30 mg/kg oral, dose of Comparative Example 29 not given, FIGS. 1 to 4): 1 h
